# Measured values reported in PubChem BioAssay (NCI).
#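 Dose response: 5 concentrations. Exposure: 48 h. Format: 96-well plates. Endpoint: linear interpolation; highest concentration if not reached. Here, GI50 denotes the concentration required for 50% inhibition of growth. TGI is the concentration that stops growth completely.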
# How the values were obtained:
# Assay in all cases: NCI-60 cell line screen, 48 h
# 786-0 renal = test system: 786-0 renal
# A498 renal = test system: A498 renal
# A549 NSCLC = test system: A549 NSCLC
# ACHN renal = test system: ACHN renal
# BT-549 breast = test system: BT-549 breast
# CAKI-1 renal = test system: CAKI-1 renal
# CCRF-CEM leukemia = test system: CCRF-CEM leukemia
# COLO 205 colon = test system: COLO 205 colon
# DU-145 prostate = test system: DU-145 prostate
# EKVX NSCLC = test system: EKVX NSCLC
# HCC-2998 colon = test system: HCC-2998 colon
# HCT-116 colon = test system: HCT-116 colon
# HCT-15 colon = test system: HCT-15 colon
# HL-60(TB) leukemia = test system: HL-60(TB) leukemia
# HOP-62 NSCLC = test system: HOP-62 NSCLC
# HOP-92 NSCLC = test system: HOP-92 NSCLC
# HS 578T breast = test system: HS 578T breast
# HT29 colon = test system: HT29 colon
# IGROV1 ovarian = test system: IGROV1 ovarian
# K-562 leukemia = test system: K-562 leukemia
# KM12 colon = test system: KM12 colon
# LOX IMVI melanoma = test system: LOX IMVI melanoma
# M14 melanoma = test system: M14 melanoma
# MALME-3M melanoma = test system: MALME-3M melanoma
# MCF7 breast = test system: MCF7 breast
# MDA-MB-231 breast = test system: MDA-MB-231 breast
# MDA-MB-435 = test system: MDA-MB-435
# MDA-MB-468 breast = test system: MDA-MB-468 breast
# MOLT-4 leukemia = test system: MOLT-4 leukemia
# NCI-H226 lung = test system: NCI-H226 lung
# NCI-H23 lung = test system: NCI-H23 lung
# NCI-H460 lung = test system: NCI-H460 lung
# NCI-H522 lung = test system: NCI-H522 lung
# OVCAR-3 ovarian = test system: OVCAR-3 ovarian
# OVCAR-4 ovarian = test system: OVCAR-4 ovarian
# OVCAR-5 ovarian = test system: OVCAR-5 ovarian
# OVCAR-8 ovarian = test system: OVCAR-8 ovarian
# PC-3 prostate = test system: PC-3 prostate
# RPMI-8226 leukemia = test system: RPMI-8226 leukemia
# RXF 393 renal = test system: RXF 393 renal
# SF-268 CNS = test system: SF-268 CNS
# SF-295 CNS = test system: SF-295 CNS
# SF-539 CNS = test system: SF-539 CNS
# SK-MEL-2 melanoma = test system: SK-MEL-2 melanoma
# SK-MEL-28 melanoma = test system: SK-MEL-28 melanoma
# SK-MEL-5 melanoma = test system: SK-MEL-5 melanoma
# SK-OV-3 ovarian = test system: SK-OV-3 ovarian
# SN12C renal = test system: SN12C renal
# SNB-19 CNS = test system: SNB-19 CNS
# SNB-75 CNS = test system: SNB-75 CNS
# SR leukemia = test system: SR leukemia
# SW-620 colon = test system: SW-620 colon
# T-47D breast = test system: T-47D breast
# TK-10 renal = test system: TK-10 renal
# U251 CNS = test system: U251 CNS
# UACC-257 melanoma = test system: UACC-257 melanoma
# UACC-62 melanoma = test system: UACC-62 melanoma
# UO-31 renal = test system: UO-31 renal
structure (smiles),measurement,setting,value
COc1cc2c(cc1OC)CN(CCCCOc1cc(O)c3c(=O)cc(-c4ccccc4)oc3c1)CC2,GI50,786-0 renal,3.53 µM
same,TGI,786-0 renal,14.4 µM
same,GI50,A498 renal,25.8 µM
same,TGI,A498 renal,63.6 µM
same,GI50,A549 NSCLC,16.1 µM
same,TGI,A549 NSCLC,> 100 µM
same,GI50,ACHN renal,8.74 µM
same,TGI,ACHN renal,> 100 µM
same,GI50,BT-549 breast,8.53 µM
same,TGI,BT-549 breast,22.9 µM
same,GI50,CAKI-1 renal,13.1 µM
same,TGI,CAKI-1 renal,97.5 µM
same,GI50,CCRF-CEM leukemia,5.17 µM
same,TGI,CCRF-CEM leukemia,> 100 µM
same,GI50,COLO 205 colon,3.27 µM
same,TGI,COLO 205 colon,12.6 µM
same,GI50,DU-145 prostate,32.1 µM
same,TGI,DU-145 prostate,> 100 µM
same,GI50,EKVX NSCLC,71 µM
same,TGI,EKVX NSCLC,> 100 µM
same,GI50,HCC-2998 colon,7.91 µM
same,TGI,HCC-2998 colon,22.1 µM
same,GI50,HCT-116 colon,3.42 µM
same,TGI,HCT-116 colon,13.4 µM
same,GI50,HCT-15 colon,6.7 µM
same,TGI,HCT-15 colon,31.8 µM
same,GI50,HL-60(TB) leukemia,2.32 µM
same,TGI,HL-60(TB) leukemia,13.8 µM
same,GI50,HOP-62 NSCLC,22.2 µM
same,TGI,HOP-62 NSCLC,> 100 µM
same,GI50,HOP-92 NSCLC,8.92 µM
same,TGI,HOP-92 NSCLC,> 100 µM
same,GI50,HS 578T breast,11.6 µM
same,TGI,HS 578T breast,52 µM
same,GI50,HT29 colon,3.34 µM
same,TGI,HT29 colon,12.4 µM
same,GI50,IGROV1 ovarian,26.4 µM
same,TGI,IGROV1 ovarian,> 100 µM
same,GI50,K-562 leukemia,2.48 µM
same,TGI,K-562 leukemia,10.8 µM
same,GI50,KM12 colon,10.3 µM
same,TGI,KM12 colon,36.9 µM
same,GI50,LOX IMVI melanoma,4.51 µM
same,TGI,LOX IMVI melanoma,15.3 µM
same,GI50,M14 melanoma,2.96 µM
same,TGI,M14 melanoma,11.3 µM
same,GI50,MALME-3M melanoma,2.95 µM
same,TGI,MALME-3M melanoma,8.16 µM
same,GI50,MCF7 breast,6.06 µM
same,TGI,MCF7 breast,35.4 µM
same,GI50,MDA-MB-231 breast,10.6 µM
same,TGI,MDA-MB-231 breast,44.8 µM
same,GI50,MDA-MB-435,13.2 µM
same,TGI,MDA-MB-435,41.9 µM
same,GI50,MDA-MB-468 breast,2.07 µM
same,TGI,MDA-MB-468 breast,14 µM
same,GI50,MOLT-4 leukemia,3.09 µM
same,TGI,MOLT-4 leukemia,19.6 µM
same,GI50,NCI-H226 lung,10.2 µM
same,TGI,NCI-H226 lung,> 100 µM
same,GI50,NCI-H23 lung,24.5 µM
same,TGI,NCI-H23 lung,> 100 µM
same,GI50,NCI-H460 lung,7.07 µM
same,TGI,NCI-H460 lung,41.5 µM
same,GI50,NCI-H522 lung,12.5 µM
same,TGI,NCI-H522 lung,29.4 µM
same,GI50,OVCAR-3 ovarian,13.1 µM
same,TGI,OVCAR-3 ovarian,50.3 µM
same,GI50,OVCAR-4 ovarian,4.01 µM
same,TGI,OVCAR-4 ovarian,91.5 µM
same,GI50,OVCAR-5 ovarian,40.7 µM
same,TGI,OVCAR-5 ovarian,> 100 µM
same,GI50,OVCAR-8 ovarian,18.9 µM
same,TGI,OVCAR-8 ovarian,> 100 µM
same,GI50,PC-3 prostate,6.44 µM
same,TGI,PC-3 prostate,> 100 µM
same,GI50,RPMI-8226 leukemia,4.29 µM
same,TGI,RPMI-8226 leukemia,24.3 µM
same,GI50,RXF 393 renal,1.69 µM
same,TGI,RXF 393 renal,10.9 µM
same,GI50,SF-268 CNS,10.6 µM
same,TGI,SF-268 CNS,> 100 µM
same,GI50,SF-295 CNS,10.7 µM
same,TGI,SF-295 CNS,25 µM
same,GI50,SF-539 CNS,10.4 µM
same,TGI,SF-539 CNS,23.8 µM
same,GI50,SK-MEL-2 melanoma,14 µM
same,TGI,SK-MEL-2 melanoma,40.1 µM
same,GI50,SK-MEL-28 melanoma,5.32 µM
same,TGI,SK-MEL-28 melanoma,19.6 µM
same,GI50,SK-MEL-5 melanoma,11 µM
same,TGI,SK-MEL-5 melanoma,23.5 µM
same,GI50,SK-OV-3 ovarian,15.7 µM
same,TGI,SK-OV-3 ovarian,50.8 µM
same,GI50,SN12C renal,6.25 µM
same,TGI,SN12C renal,> 100 µM
same,GI50,SNB-19 CNS,28.5 µM
same,TGI,SNB-19 CNS,> 100 µM
same,GI50,SNB-75 CNS,4 µM
same,TGI,SNB-75 CNS,45.4 µM
same,GI50,SR leukemia,1.85 µM
same,TGI,SR leukemia,4.67 µM
same,GI50,SW-620 colon,11.3 µM
same,TGI,SW-620 colon,35.4 µM
same,GI50,T-47D breast,9.01 µM
same,TGI,T-47D breast,65.9 µM
same,GI50,TK-10 renal,57.4 µM
same,TGI,TK-10 renal,> 100 µM
same,GI50,U251 CNS,11.9 µM
same,TGI,U251 CNS,56.6 µM
same,GI50,UACC-257 melanoma,5.28 µM
same,TGI,UACC-257 melanoma,18.6 µM
same,GI50,UACC-62 melanoma,2.67 µM
same,TGI,UACC-62 melanoma,7.92 µM
same,GI50,UO-31 renal,10.3 µM
same,TGI,UO-31 renal,26.4 µM
